Assay results from patent publication US20080306243A1, “Hla-Binding Peptide, and Dna Fragment and Recombinant Vector Coding for Said Hla-Binding Peptide” (NEC CORPORATION, priority 2005, published 2008).
pKd: −log10 of the molar value. Where two headings read alike, the source gives them in different places. Ends that are not written are not given here.

Tests used:
HLA-A0206 molecule = biological target: T1, HLA-A0206 molecule (Homo sapiens, UniProt P04439, D140Y/D185E/D98H/E176V/E277Q/F33Y/G131W/G231S/I119V/I121R/I166T/I218V/L300P/L318F/N151K/N90K/P208A/P217A/Q86G/Q94H/R138H/R169H/T345S); test: Experiment of binding peptide to HLA-A0206 molecule (RA2.6 cells, flow cytometry); settings: for Kd: binding to HLA-A0206 molecule, RA2.6 cells, read-out: BINDING EXPERIMENT DATA (converted)
T1 construct: expressed in transfected cells; host or cells: RA2.6 cells (RAMS mouse TAP-deficient cells expressing HLA-A*0206 cDNA)
Protocol: (§1) The ability of a peptide to bind to an HLA-A0206 molecule, which is a product of the HLA-A*0206 gene, was measured using RA2.6 cells (cell strain newly prepared in Kochi University), wherein cDNA of the HLA-A*0206 gene is expressed in RAMS cells, which are mouse peptide transporter TAP-deficient cells.
(§2) RA2.6 cells were first cultured overnight at 26° C., serial dilutions of peptide were added to HLA-A0206 molecules having no peptide bound thereto that were deposited on the cell surface, and binding was carried out at room temperature for 30 minutes.
(§3) Subsequently, culturing was carried out at 37° C. for 3.5 hours, empty HLA-A0206 molecules to which no peptide were bound was denatured, and the tertiary structure was lost.
(§4) The cells were stained by adding thereto fluorescently labeled monoclonal antibody 17A10 or 17A12, which specifically recognize the peptide-binding HLA-A0206 molecule, and incubating on ice for 20 minutes.
(§5) Subsequently, the amount of fluorescence per cell was measured using a flow cytometer, and a dissociation constant Kd value was calculated by a published method (Udaka et al., Immunogenetics, 51, 816-828, 2000).

HLA-A2402 molecule = HLA-A2402 molecule (Homo sapiens, UniProt P04439, D101N/D140Y/D185E/E176V/E190D/F33S/G103R/G107R/I119L/I121M/I306V/K335N/L105A/L180Q/L300P/N151K/N90K/Q86E/Q94H/R106L/R138H/R89G/T104I/T345S/V100E/W191G/Y123F); test: Experiment of binding peptide to HLA-A2402 molecule (C1R-A24 cells, flow cytometry); settings: for Kd: binding to HLA-A2402 molecule, C1R-A24 cells, read-out: BINDING EXPERIMENT DATA (converted)
Protocol: (§6) The ability of a peptide to bind to an HLA-A2402 molecule, which is a product of the HLA-A*2402 gene, was measured using C1R-A24 cells expressing the HLA-A*2402 gene (cells prepared by Professor Masafumi Takiguchi, Kumamoto University being supplied with permission by Assistant Professor Masaki Yasukawa, Ehime University).
(§7) C1R-A24 cells were first exposed to acidic conditions at a pH of 3.3 for 30 seconds, thus dissociating and removing a light chain β2m, which is associated with HLA class I molecules in common, and an endogenous peptide originally bound to the HLA-A2402 molecule. After neutralization, purified β2m was added to C1R-A24 cells, the obtained product was added to serial dilutions of a peptide, and incubated on ice for 4 hours. Staining was carried out using fluorescently labeled monoclonal antibody 17A12, which recognizes association (MHC-pep) of the three members, that is, HLA-A2402 molecule, the peptide, and β2m, which had reassociated during the incubation.
(§8) Subsequently, the MHC-pep count per C1R-A24 cell (proportional to the strength of fluorescence of the above-mentioned fluorescent antibody) was quantitatively measured using an FACScan fluorescence-activated cell sorter (Becton Dickinson Biosciences). A binding dissociation constant Kd value between the HLA-A24 molecule and the peptide was calculated from the average strength of fluorescence per cell by a published method (Udaka et al., Immunogenetics, 51, 816-828, 2000).

[1] = tested on: human HLA-A type molecule; test: Binding experiments summarised for HLA-A type molecules
Protocol: as §6, §7, §8
The ability of a peptide to bind to an HLA-A0201 molecule, which is a product of the HLA-A*0201 gene, was measured using strain JY cells expressing the HLA-A*0201 (obtained from ATCC (American Type Culture Collection)).
JY cells were first exposed to acidic conditions at a pH of 3.8 for 30 seconds, thus dissociating and removing a light chain β2m and an endogenous peptide, which were noncovalently associated with the HLA-A0201 molecule. After neutralization, a reassociation experiment was carried out. The above-mentioned JY cells and the purified β2m were added to stepped serial dilutions of peptide for which the binding ability was to be measured, and incubation was carried out on ice for 4 hours. HLA-A0201 molecules that had reassociated up to this point were stained using the associating type specific fluorescently-labeled monoclonal antibody BB7.2.
Subsequently, the amount of fluorescence per cell was measured using a flow cytometer and a dissociation constant Kd value was calculated by a published method (Udaka et al., Immunogenetics, 51, 816-828, 2000).
as §1, §2, §3, §4, §5

HLA-A0201 molecule = HLA-A0201 molecule (Homo sapiens, UniProt P04439, D140Y/D185E/D98H/E176V/E277Q/G131W/G231S/I119V/I121R/I166T/I218V/L300P/L318F/N151K/N90K/P208A/P217A/Q86G/Q94H/R138H/R169H/T345S); test: Experiment of binding peptide to HLA-A0201 molecule (JY cells, flow cytometry); settings: expressed as -log Kd value

Compound: WVLTAAHCI [compound 20]
- pKd (HLA-A0206 molecule): 5.95

Compound: CC(C)C[C@H](N)C(=O)N[C@H](C(=O)N[C@@H](C)C(=O)N[C@@H](CO)C(=O)N[C@@H](CCCNC(=N)N)C(=O)NCC(=O)N[C@@H](CCCNC(=N)N)C(=O)N[C@@H](C)C(=O)N[C@H](C(=O)O)C(C)C)C(C)C [compound 22]
- Kd (HLA-A0206 molecule): 5580 nM

Compound: WVLTAAHCI [compound 12]
- pKd (HLA-A2402 molecule): 4.63
- binding to a human HLA-A type molecule [1]: experimentally confirmed to bind

Compound: ILLGRHSLF [compound 3]
- Kd (HLA-A2402 molecule): 33.5 nM
- binding to a human HLA-A type molecule ([1]; result in words): experimentally confirmed to bind

Compound: CC(C)C[C@H](NC(=O)[C@@H](NC(=O)CN)C(C)C)C(=O)N[C@H](C(=O)N[C@@H](Cc1c[nH]cn1)C(=O)N1CCC[C@H]1C(=O)N[C@@H](CCC(N)=O)C(=O)N[C@@H](Cc1c[nH]c2ccccc12)C(=O)N[C@H](C(=O)O)C(C)C)C(C)C [compound 19]
- Kd (HLA-A0206 molecule): 525 nM

Compound: FHPEDTGQV [compound 13]
- pKd (HLA-A0201 molecule): 5.53

Compound: VHPQKVTKF [compound 7]
- Kd (HLA-A2402 molecule): 223 nM
- binding to a human HLA-A type molecule ([1]; result in words): experimentally confirmed to bind

Compound: GVLQGITSW [compound 8]
- Kd (HLA-A2402 molecule): 4200 nM
- binding to a human HLA-A type molecule ([1]; result in words): experimentally confirmed to bind

Compound: CC(C)C[C@H](NC(=O)[C@@H](NC(=O)[C@H](Cc1c[nH]c2ccccc12)NC(=O)[C@H](CCC(N)=O)NC(=O)[C@@H]1CCCN1C(=O)[C@H](Cc1c[nH]cn1)NC(=O)[C@@H](NC(=O)[C@H](CC(C)C)NC(=O)[C@@H](N)C(C)C)C(C)C)C(C)C)C(=O)O [compound 9]
- Kd (HLA-A2402 molecule): 458 nM
- binding to a human HLA-A type molecule ([1]; result in words): experimentally confirmed to bind

Compound: WVPVVFLTL [compound 2]
- Kd (HLA-A2402 molecule): 50.9 nM
- binding to a human HLA-A type molecule ([1]; result in words): experimentally confirmed to bind

Compound: QVFQVSHSF [compound 5]
- Kd (HLA-A2402 molecule): 47.8 nM
- binding to a human HLA-A type molecule ([1]; result in words): experimentally confirmed to bind

Compound: DLPTQEPAL [compound 27]
- Kd (HLA-A0206 molecule): 5440 nM

Compound: WVPVVFLTL [compound 24]
- Kd (HLA-A0206 molecule): 182 nM

Compound: DLPTQEPAL [compound 4]
- Kd (HLA-A2402 molecule): 5870 nM
- binding to a human HLA-A type molecule ([1]; result in words): experimentally confirmed to bind

Compound: ILSRIVGGW [compound 6]
- Kd (HLA-A2402 molecule): 62 nM
- binding to a human HLA-A type molecule ([1]; result in words): experimentally confirmed to bind
